Experiment: absorption spectrum, light emission spectrum, molecular extinction coefficient and quantum efficiency in solvents
Type: physicochemical

Row | SMILES | ε (molecular extinction coefficient) (solvent DMSO) | λem (solvent DMSO) [nm] | λex (solvent DMSO) [nm] | φ (quantum efficiency) (solvent DMSO) | ε (molecular extinction coefficient) (solvent CH2Cl2) | λem (solvent CH2Cl2) [nm] | λex (solvent CH2Cl2) [nm] | φ (quantum efficiency) (solvent CH2Cl2) | ε (molecular extinction coefficient) (solvent H2O) | λem (solvent H2O) [nm] | λex (solvent H2O) [nm] | φ (quantum efficiency) (solvent H2O) | ε (molecular extinction coefficient) (solvent PBS) | λem (solvent PBS) [nm] | λex (solvent PBS) [nm] | φ (quantum efficiency) (solvent PBS) | ε (molecular extinction coefficient) (solvent EtOH) | λem (solvent EtOH) [nm] | λex (solvent EtOH) [nm] | φ (quantum efficiency) (solvent EtOH) | further results
1 | COC(=O)C1=CC2=C3N(CCC2OC1=O)c1ccccc1C3(C)C (centres unmarked) [Compound 1] | 63,000 Lmol^−1cm^−1 | 479 | 456 | 0.900 | – | – | – | – | – | – | – | – | – | – | – | – | – | – | – | – | –
2 | CC1(C)C2=C3C=C(C(=O)[O-])C(=O)OC3CCN2c2ccc(S(=O)(=O)[O-])cc21.[Na+].[Na+] (centres unmarked) [Compound 2] | 30,000 Lmol^−1cm^−1 | 500 | 468 | 0.768 | 20,000 Lmol^−1cm^−1 | 495 | 429 | 0.169 | 45,000 Lmol^−1cm^−1 | 489 | 453 | 0.718 | 44,000 Lmol^−1cm^−1 | 487 | 451 | 0.796 | – | – | – | – | ε (molecular extinction coefficient) (solvent MeOH): 50,000 Lmol^−1cm^−1; λem (solvent MeOH): 493 nm; λex (solvent MeOH): 463 nm; φ (quantum efficiency) (solvent MeOH): 0.625
3 | CC1(C)C2=C3C=CC(=O)OC3CCN2c2ccc(S(=O)(=O)[O-])cc21.[Na+] (centres unmarked) [Compound 3] | 27,000 Lmol^−1cm^−1 | 470 | 416 | 0.645 | 22,000 Lmol^−1cm^−1 | 464 | 403 | 0.227 | 28,000 Lmol^−1cm^−1 | 492 | 423 | 0.764 | 28,000 Lmol^−1cm^−1 | 492 | 423 | 0.759 | – | – | – | – | ε (molecular extinction coefficient) (solvent MeOH): 27,000 Lmol^−1cm^−1; λem (solvent MeOH): 484 nm; λex (solvent MeOH): 410 nm; φ (quantum efficiency) (solvent MeOH): 0.667
4 | CC(=O)C1=CC2=C3N(CCC2OC1=O)c1ccc2ccccc2c1C3(C)C (centres unmarked) [Compound 9] | 47,000 Lmol^−1cm^−1 | 516 | 492 | 0.910 | – | – | – | – | – | – | – | – | – | – | – | – | – | – | – | – | –
5 | CC1(C)C2=C3C=C(C(=O)[O-])C(=O)OC3CCN2c2ccccc21.[Na+] (centres unmarked) [Compound 5] | 49,000 Lmol^−1cm^−1 | 490 | 466 | 0.913 | – | – | – | – | 50,000 Lmol^−1cm^−1 | 483 | 452 | 0.062 | 49,000 Lmol^−1cm^−1 | 483 | 454 | 0.633 | 51,000 Lmol^−1cm^−1 | 485 | 462 | 0.412 | –
6 | CC1(C)C2=C3C=C(CC(=O)O)C(=O)OC3CCN2c2ccccc21 (centres unmarked) [Compound 63] | 15,000 Lmol^−1cm^−1 | 470 | 416 | – | 15,000 Lmol^−1cm^−1 | 466 | 414 | – | 17,000 Lmol^−1cm^−1 | 506 | 432 | – | 17,000 Lmol^−1cm^−1 | 507 | 434 | – | 15,000 Lmol^−1cm^−1 | 485 | 416 | – | –
7 | CC1(C)C2=C3C=C(C(=O)CCCC(=O)[O-])C(=O)OC3CCN2c2ccc3cc(S(=O)(=O)[O-])ccc3c21.[Na+].[Na+] (centres unmarked) [Compound 16] | 47,000 Lmol^−1cm^−1 | 519 | 494 | 0.935 | 49,000 Lmol^−1cm^−1 | 515 | 488 | 0.137 | 48,000 Lmol^−1cm^−1 | 516 | 492 | 0.405 | 51,000 Lmol^−1cm^−1 | 516 | 492 | 0.417 | 47,000 Lmol^−1cm^−1 | 516 | 490 | 0.872 | –
8 | CCOC(=O)CCCC(=O)C1=CC2=C3N(CCC2OC1=O)c1ccc2ccccc2c1C3(C)C (centres unmarked) [Compound 62] | 46,000 Lmol^−1cm^−1 | 516 | 492 | 0.958 | 42,000 Lmol^−1cm^−1 | 511 | 486 | 0.944 | 26,000 Lmol^−1cm^−1 | 520 | 468 | 0.194 | 29,000 Lmol^−1cm^−1 | 520 | 486 | 0.193 | 47,000 Lmol^−1cm^−1 | 516 | 486 | 0.820 | –
9 | COC(=O)C1=CC2=C3N(CCC2OC1=O)c1ccc2ccccc2c1C3(C)C (centres unmarked) [Compound 6] | 53,000 Lmol^−1cm^−1 | 503 | 474 | 0.928 | – | – | – | – | – | – | – | – | – | – | – | – | – | – | – | – | –
10 | CC1(C)C2=C3C=C(CC(=O)[O-])C(=O)OC3CCN2c2ccc(S(=O)(=O)[O-])cc21.[Na+].[Na+] (centres unmarked) [Compound 64] | 26,000 Lmol^−1cm^−1 | 472 | 412 | 0.84 | 22,000 Lmol^−1cm^−1 | 468 | 414 | 0.01 | 26,000 Lmol^−1cm^−1 | 500 | 422 | 0.91 | 27,000 Lmol^−1cm^−1 | 503 | 423 | 0.95 | 28,000 Lmol^−1cm^−1 | 483 | 408 | 0.78 | –
11 | CC1(C)C2=C3C=C(C(=O)O)C(=O)OC3CCN2c2cc3c(cc21)-c1ccccc1C3(C)C (centres unmarked) [Compound 61] | 47,000 Lmol^−1cm^−1 | 525 | 480 | – | 46,000 Lmol^−1cm^−1 | 522 | 484 | – | 46,000 Lmol^−1cm^−1 | 516 | 468 | – | 46,000 Lmol^−1cm^−1 | 518 | 468 | – | 49,000 Lmol^−1cm^−1 | 525 | 480 | – | –
12 | COC(=O)C1=CC2=C3N(CCC2OC1=O)c1cc2c(cc1C3(C)C)-c1ccccc1C2(C)C (centres unmarked) [Compound 60] | 42,000 Lmol^−1cm^−1 | 513 | 476 | – | 41,000 Lmol^−1cm^−1 | 511 | 470 | – | 38,000 Lmol^−1cm^−1 | 523 | 476 | – | – | – | – | – | 42,000 Lmol^−1cm^−1 | 519 | 474 | – | –
